The text below walks through data of patent publication EP3386957B1, “PROCESS FOR THE PURIFICATION OF 10-DEACETYL BACCATIN III” (RotaChrom Technológiai és Szolgálató Zártkörüen Müködö …, priority 2015, dated 2017).

Holding throughout (type): physicochemical
Data set [1] can be described thus: Partition coefficient in biphasic CPC solvent systems. The text has this: (§1) As such a degree of solubility may only be achieved in a mixture of MIBK, acetone and water after heating, after cooling and shaking the substance crystalized (Margraff, 1995). The partition coefficient of 10-DAB III is around 6. […] The chromatogram according to Figure 3 presents a product purified in such a solvent system.
(§2) It was also surprising to experience that the biphasic system formed by the mixture of methyl tert-butyl ether (hereinafter: MTBE), acetone and water is also suitable for dissolving 10-DAB III, if their volumetric mixing ratio is approximately 4:4:3, in which the upper phase is a mixture of 40% MTBE, 50% acetone and 10% water, and the lower phase is a mixture of 40% water, 50% acetone and 10% MTBE. 10-DAB III is insoluble separately in MTBE and in water, but it dissolves in both phases of the aforementioned ternary solvent mixture, solubility in the upper phase is 50 mg/ml. […] Such contaminants on the basis of the HPLC method below are the RRT=0.68 and the RRT=0.87 contaminants.
Liquid chromatography or extraction performed with a chlorinated hydrocarbon is usually used for the separation of chlorophyll and related compounds. […] A solvent system that may be used for this may be the dichloromethane, methanol and water mixture at an approximate volumetric ratio of 3:4:3. In this solvent system the partition coefficient of 10-DAB III is 0.95, while that of the aforementioned problematic contaminants is around 0.4-0.5.

Data set [2] can be described thus: Solubility of 10-DAB III in solvents and biphasic solvent systems.
From the text: as §1, §2

The nature of data set [3]: Selectivity of CPC solvent systems for contaminants of 10-DAB III (contaminants identified by HPLC relative retention time). As to the method:
The HPLC methods used for the analysis: • 1. Isocratic method • Column: Dr Maisch ReproSil-Pur C18-AQ (150x4.0 mm, 3 um) • Column thermostat: 35 °C • Flow rate: 0.75 ml/min • Eluent: 28% acetonitrile, 72% water, 0.1% acetic acid • Detection wavelength: 230 +/- 5 nm • Injected volume: 10 ul • 2. Gradient method • Colum: Phenomenex Kinetex C18 (100x3.0 mm, 2.6 um) • Column thermostat: 35 °C • Flow rate: 0.7 ml/min • Eluent A: water + 0.1% acetic acid Eluent B: acetonitrile Gradient program: 0 min 20% B, 5 min: 30% B, 11 min 40% B, 13 min 40% B, 14 min 20% B, 18 min 20% B • Detection wavelength: 230 +/- 5 nm • Injected volume: 5 ul
Table 3: the selectivity matrix of the individual methods according to the invention

≈ marks a conversion by molar mass, not a printed value. Read-outs that look alike come from different tables or passages of the source.

Regarding `CC(=O)O[C@@]12CO[C@@H]1C[C@H](O)[C@@]1(C)C(=O)[C@H](O)C3=C(C)[C@@H](O)C[C@@](O)([C@@H](OC(=O)c4ccccc4)[C@H]21)C3(C)C` [10-DAB III, 10-deacetylbaccatin III], the partition coefficient result was “around 6” in data set [1] (MEK/water biphasic system); “around 2” in data set [1] (MTBE/acetone/water approximately 4:4:3); 0.95 in data set [1] (dichloromethane, methanol and water approximately 3:4:3). Moreover, the solubility was 50 mg/mL (≈ 91.8 mM) in data set [2] (organic solvent or mixture, MTBE/acetone/water approximately 4:4:3, upper phase (40% MTBE, 50% acetone, 10% water), read-out: solubility in the upper phase); “does not dissolve well” in data set [2] (separately in MEK or water); “insoluble” in data set [2] (separately in MTBE and in water); 80 mg/mL (≈ 147 mM) in data set [2] (upper phase of MEK/water biphasic system, organic solvent or mixture, MEK/water biphasic system, upper phase (MEK saturated with water), read-out: solubility in the upper phase).
For `CC(=O)O[C@@]12CO[C@@H]1C[C@H](O)[C@@]1(CO)C(=O)[C@H](O)C3=C(C)[C@@H](O)C[C@@](O)([C@@H](OC(=O)c4ccccc4)[C@H]21)C3(C)C` [RRT=0.48, 19-OH-10-deacetylbaccatin III], the selectivity entry in data set [3] (CPC solvent mixture DCM/MeOH/water, Table 3) is given as “+”; in data set [3] (CPC solvent mixture MEK/water, isocratic HPLC method), “great selectivity”; in data set [3] (CPC solvent mixture MEK/water, Table 3), “+++ (high selectivity)”; in data set [3] (CPC solvent mixture MTBE/acetone/water, isocratic HPLC method) it was “great selectivity”; in data set [3] (prior-art system: mixture of methyl isobutyl ketone, acetone and water), “excellent selectivity”.

For orientation: solubility means how much of the substance goes into solution per volume.
